Assay [1] concerns the target T1, oxidized PTP1B-mut2 (L37F/K39E/K41R) (Homo sapiens, UniProt P18031, K39E/K41R/L37F).
T1 construct: PTP1B (1–321) and TCPTP (1–317) cloned in pET21b vector were used as templates; 6xHis (C); made in house; host or cells: E. coli BL21 (DE3)-RIL
T1 sequence (P18031 1-321 L37F/K39E/K41R): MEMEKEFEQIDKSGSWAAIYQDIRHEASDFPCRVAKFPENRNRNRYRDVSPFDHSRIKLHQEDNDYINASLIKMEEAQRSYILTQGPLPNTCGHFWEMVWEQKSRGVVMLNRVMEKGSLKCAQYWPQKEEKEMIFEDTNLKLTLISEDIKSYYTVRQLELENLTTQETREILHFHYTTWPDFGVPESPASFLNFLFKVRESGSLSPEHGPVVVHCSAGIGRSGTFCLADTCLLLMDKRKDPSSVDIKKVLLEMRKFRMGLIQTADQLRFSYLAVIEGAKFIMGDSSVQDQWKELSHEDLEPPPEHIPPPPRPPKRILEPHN
Put plainly: reduction and reactivation of oxidized PTP1B-mut2, DiFMUP, TCEP. Format: biochemical. The note with it: TCEP 5 mM. Here is the method:
Fig. 1 Molecular characterization of PTP1B-scFv45 interaction. a Overlay of PTP1B (gray) and TCPTP (pale blue) crystal structures, highlighting residues that are changed in generating mutant forms (-mut1 and -mut2) of the enzymes. b Increasing concentrations of recombinant HA-tagged scFv45 were incubated with oxidized wild-type (-wt) or mutant (-mut) forms of PTP1B (top panel) and oxidized wild-type or mutant forms of TCPTP (bottom panel). The protein complexes were precipitated with anti-HA-agarose beads and equivalent amounts of input, supernatant, and eluate were subjected to immunoblot analysis. Data are representative of at least three independent experiments (n = 3). c Michaelis–Menten plots for wild-type (circle), -mut1 (square), or -mut2 (triangle) forms of PTP1B (left) and TCPTP (right) are shown. […] Individual data points represent the mean obtained from three separate experiments (n = 3). d Wild-type and mutant forms of PTP1B were incubated with increasing concentrations of H2O2 and phosphatase activity was measured using DiFMUP in the absence (black bar) and presence (gray bar) of the reducing agent TCEP (5 mM). e Oxidized PTP1B-wt (circle), PTP1B-mut1 (square), or PTP1B-mut2 (triangle) were incubated with increasing concentration of scFv45 (0–1000 nM) and phosphatase activity was measured using DiFMUP as substrate in the presence of the reducing agent TCEP (5 mM). […]

Assay [2] concerns PKC. Conditions: called into question by refs 39, 40; cited from earlier work.
The target of assay [3] is T2, PTP1B-OX : TRX1 trapping mutant complex (Homo sapiens, UniProt P18031).
T2 sequence (P18031 1-321 limits assumed): T1 sequence (P18031 1-321 L37F/K39E/K41R) with F37L, E39K, R41K
Description: in vitro substrate trapping of PTP1B by thioredoxin trapping mutant. Format: biochemical. Conditions: chelerythrine 5 μM. From the text:
Thioredoxin (TRX), which functions to reduce oxidized cysteines in target proteins, contains an essential CXXC motif, in which the first cysteine forms a mixed disulfide intermediate with an oxidized cysteine in the target protein. The second cysteine then serves a “resolving” function—it forms a disulfide bond with the first cysteine in the CXXC motif, with the resulting transfer of electrons leading to reduction of the target protein. We utilized an assay using a “trapping mutant” form of thioredoxin in which the second cysteine is mutated to serine, which stabilizes the mixed disulfide intermediate with the target substrate.
Recombinant variants of N-terminally His-tagged human TRX1 (0.1 mg, WT, and trapping mutant, C35S) were reduced with 20 mM DTT in 1 mL PBS on ice for 30 min, then desalted on a Sephadex PD-10 column. Ten μg each of TRX1-WT and TRX1-C35S proteins was used in the trapping experiment. PTP1B (40 μg ml^−1) was incubated with H2O2 (0, 0.1 and 0.5 mM) for 10 min at room temperature and excess H2O2 was removed by desalting. Reduced and oxidized forms of PTP1B (20 μg) were incubated with WT or trapping mutant TRX1 for 20 min at room temperature in the absence and presence of chelerythrine (5 μM) in 1 mL PBS. Ni-NTA beads were added and incubated for 1 h at 4 °C. […]

Assay [4] has as its system reduced form of PTP1B. The arrangement: method as in PMID 21962515. The note with it: cited from earlier work.

Changes are numbered by the printed parent chain. “Also recorded” adds a separate entry of the source.

Regarding `COc1ccc2c(c[n+](C)c3c4cc5c(cc4ccc23)OCO5)c1OC` [chelerythrine], in assay [1], the “inhibition of reduction and reactivation of oxidized PTP1B-mut2” value is given as “unable to inhibit; also recorded: insensitive”. Moreover, the “inhibition of PKC” value in assay [2] is recorded as “inhibitor of PKC”. Also, the “complex formation between PTP1B-OX and thioredoxin substrate trapping mutant” value in assay [3] is recorded as “did not prevent complex formation”.

B1: scFv45: recombinant conformation-sensor single-chain variable fragment antibody recognizing oxidized PTP1B (antibody, V domains shown)
VH: TVTLDESGGGLQAPGGALSLVCKASGFTFSSYDMGWIRQAPGKGLEYVAGITDNGRYASYGSAVDGRATISRDNGQSSVRLQLNNLRAEDTGTYYCARDDGSGWTGNSIDAWGHGTEVIVSE
VL: ALTQPSSVSANPGGTVKITCSGSSSAYGYGWYQQKSPGSAPVTVIYNNNKRPSNIPSRFSGSKSGSTGTLTITGVQAEDEAVYFCGSEDSSTDAIFGAGTTLTVL
Turning to B1, in assay [1], the “inhibition of reduction and reactivation of oxidized PTP1B-mut2” value was “did not attenuate”. Further, the “binding to the reduced form of PTP1B” value in assay [4] is “did not bind”.

The values above are taken from publication PMC5773487, “Harnessing insulin- and leptin-induced oxidation of PTP1B for therapeutic development” (Nature Communications, 2018).
